Results from patent US7109216B2 (priority 2001, dated 2006).
pKi: −log10 of the molar value. Where two headings read alike, the source gives them in different places.

Tests used:
[1] = target: T1, human cannabinoid CB1 receptor (Homo sapiens, UniProt P21554); test: Cannabinoid CB1 antagonistic activity, forskolin-induced cAMP accumulation in CHO cells; assay type: cell-based; parameters: expressed in transfected cells; host or cells: CHO cells
Description: The cannabinoid CB1 antagonistic activity of compounds of the invention was determined by functional studies using CHO cells in which human cannabinoid CB1 receptors were stably expressed. Adenylyl cyclase was stimulated using forskolin and measured by quantifying the amount of accumulated cyclic AMP. Concomitant activation of CB1 receptors by CB1 receptor agonists (e.g. CP-55,940 or (R)-WIN-55,212–2) can attenuate the forskolin-induced accumulation of cAMP in a concentration-dependent manner. This CB1 receptor-mediated response can be antagonized by CB1 receptor antagonists such as the compounds of the invention.

[2] = target: T1, human cannabinoid CB1 receptor; test: biochemical; assay type: binding; parameters: expressed in transfected cells; host or cells: Chinese hamster ovary (CHO) cells, membrane preparation; conditions: [3H]CP-55,940 radioligand, CHO cell membranes stably transfected with human CB1; for pKi: hCB1 pKi; for Ki: read-out: hCB1 pKi (converted)
Description: After incubation of a freshly prepared cell membrane preparation with the [^3H]-ligand, with or without addition of compounds of the invention, separation of bound and free ligand was performed by filtration over glassfiber filters. Radioactivity on the filter was measured by liquid scintillation counting.

[3] = antagonism of CB1 agonist (e.g. CP-55,940 or (R)-WIN-55,212-2) effect on forskolin-induced cAMP accumulation, CHO cells expressing human CB1, read-out: hCB1 pA2 (converted)
[4] = antagonism of CB1 agonist (e.g. CP-55,940 or (R)-WIN-55,212-2) effect on forskolin-induced cAMP accumulation, CHO cells expressing human CB1

T1 sequence (P21554 whole entry): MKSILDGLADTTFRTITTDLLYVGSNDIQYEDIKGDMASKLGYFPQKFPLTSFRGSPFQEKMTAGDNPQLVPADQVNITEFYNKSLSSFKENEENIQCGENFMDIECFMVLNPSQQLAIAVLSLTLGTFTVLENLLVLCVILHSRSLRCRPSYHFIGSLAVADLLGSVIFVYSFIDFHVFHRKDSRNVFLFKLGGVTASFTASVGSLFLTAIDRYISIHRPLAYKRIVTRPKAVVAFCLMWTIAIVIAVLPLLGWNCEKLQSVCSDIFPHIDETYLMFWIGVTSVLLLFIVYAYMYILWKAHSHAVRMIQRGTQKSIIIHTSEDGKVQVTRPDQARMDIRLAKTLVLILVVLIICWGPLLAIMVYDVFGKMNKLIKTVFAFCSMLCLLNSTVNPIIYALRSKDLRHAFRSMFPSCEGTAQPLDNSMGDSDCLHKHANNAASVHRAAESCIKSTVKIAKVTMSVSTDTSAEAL

| SMILES | Kb [1, 3] [nM] | pKi [2] | melting point | Kb [1] [nM] | Ki [2] [nM] | hCB1 pA2 [1, 4] |
| --- | --- | --- | --- | --- | --- | --- |
| CN(Cc1ccccc1)C(=O)c1cn(-c2ccc(Cl)cc2)c(-c2ccc(Cl)cc2Cl)n1 [Example 6, N-(Benzyl)-1-(4-chlorophenyl)-2-(2,4-dichlorophenyl)-N-methyl-1H-imidazole-4-carboxamide] | 50.1 | 7.20 |  |  |  |  |
| Cc1c(C(=O)NN2CCCCC2)nc(-c2ccc(Cl)cc2)n1-c1ccc(Cl)cc1Cl [Example 10, 2-(4-chlorophenyl)-1-(2,4-dichlorophenyl)-5-methyl-N-(piperidin-1-yl)-1H-imidazole-4-carboxamide] | 7.94 | 6.50 |  |  |  |  |
| Cc1c(C(=O)NN2CCCCC2)nc(-c2ccc(Cl)cc2Cl)n1-c1ccc(Cl)cc1 [Example 12, 1-(4-Chlorophenyl)-2-(2,4-dichlorophenyl)-5-methyl-N-(piperidin-1-yl)-1H-imidazole-4-carboxamide] | 1.26 | 7.90 |  |  |  |  |
| Cc1c(C(=O)NOC(C)(C)C)nc(-c2ccc(Cl)cc2Cl)n1-c1ccc(Cl)cc1 [Example 13, N-(t-Butoxy)-2-(2,4-dichlorophenyl)-1-(4-chlorophenyl)-5-methyl-1H-imidazole-4-carboxamide] | 3.16 | 7.10 |  |  |  |  |
| CCc1c(C(=O)NOC(C)(C)C)nc(-c2ccc(Cl)cc2Cl)n1-c1ccc(Cl)cc1 [Example 14, N-(t-Butoxy)-1-(4-chlorophenyl)-2-(2,4-dichlorophenyl)-5-ethyl-1H-imidazole-4-carboxamide] | 0.126 | 7.00 |  |  |  |  |
| CCc1c(C(=O)NN2CCCCC2)nc(-c2ccc(Cl)cc2Cl)n1-c1ccc(Cl)cc1 [Example 15, 1-(4-Chlorophenyl)-2-(2,4-dichlorophenyl)-5-ethyl-N-(piperidin-1-yl)-1H-imidazole-4-carboxamide] | 0.501 | 8.00 |  |  |  |  |
| Cc1c(C(=O)NN2CCCCC2)nc(-c2ccc(Cl)cc2Cl)n1-c1ccc(Br)cc1 [Example 17, 1-(4-Bromophenyl)-2-(2,4-dichlorophenyl)-5-methyl-N-(piperidin-1-yl)-1H-imidazole-4-carboxamide] | 1.58 | 7.30 | > 204 °C |  |  |  |
| CCc1c(C(=O)NN2CCCCC2)nc(-c2ccc(Cl)cc2Cl)n1-c1ccc(Br)cc1 [Example 19, 1-(4-Bromophenyl)-2-(2,4-dichlorophenyl)-5-ethyl-N-(piperidin-1-yl)-1H-imidazole-4-carboxamide] | 1.26 | 7.50 | > 140 °C |  |  |  |
| CCc1c(C(=O)NC2CCCCC2)nc(-c2ccc(Cl)cc2Cl)n1-c1ccc(Br)cc1 [Example 20, 1-(4-Bromophenyl)-N-cyclohexyl-2-(2,4-dichlorophenyl)-5-ethyl-1H-imidazole-4-carboxamide] | < 1 | 7.00 | > 135 °C |  |  |  |
| CCCCCNC(=O)c1nc(-c2ccc(Cl)cc2Cl)n(-c2ccc(Br)cc2)c1CC [Example 21, 1-(4-Bromophenyl)-2-(2,4-dichlorophenyl)-5-ethyl-N-(n-pentyl)-1H-imidazole-4-carboxamide] | < 1 | 7.50 |  |  |  |  |
| O=C(NN1CCCCC1)c1cn(-c2ccc(Br)cc2)c(-c2ccc(Cl)cc2Cl)n1 [Example 22, 1-(4-bromophenyl)-2-(2,4-dichlorophenyl)-N-(piperidin-1-yl)-1H-imidazole-4-carboxamide] |  |  |  | 10 | 398 |  |
| CC(C)(C)ONC(=O)c1cn(-c2ccc(Br)cc2)c(-c2ccc(Cl)cc2Cl)n1 [Example 23, N-(t-Butoxy)-1-(4-bromophenyl)-2-(2,4-dichlorophenyl)-1H-imidazole-4-carboxamide] |  |  |  | 1 | 398 |  |
| O=C(NN1CCCCCC1)c1cn(-c2ccc(Br)cc2)c(-c2ccc(Cl)cc2Cl)n1 [Example 25, N-(Azepan-1-yl)-1-(4-bromophenyl)-2-(2,4-dichlorophenyl)-1H-imidazole-4-carboxamide] |  |  | 201 to 204 °C | 10 | 126 |  |
| O=C(NN1CC2CCCC2C1)c1cn(-c2ccc(Cl)cc2)c(-c2ccc(Cl)cc2Cl)n1 (stereo not drawn) [Example 26, 1-(4-Chlorophenyl)-2-(2,4-dichlorophenyl)-N-(hexahydrocyclopenta[c]pyrrol-2(1H)-yl)-1H-imidazole-4-carboxamide] | 10 | 6.30 |  |  |  |  |
| O=C(NCc1ccc(F)cc1)c1cn(-c2ccc(Cl)cc2)c(-c2ccc(Cl)cc2Cl)n1 [Example 27, 1-(4-Chlorophenyl)-2-(2,4-dichlorophenyl)-N-(4-fluorobenzyl)-1H-imidazole-4-carboxamide] | 3.98 | 7.20 |  |  |  |  |
| COc1cc(Cl)ccc1-c1nc(C(=O)NC2CCCCC2)cn1-c1ccc(Cl)cc1 [Example 29, 1-(4-Chlorophenyl)-N-cyclohexyl-2-(2-methoxy-4-chlorophenyl)-1H-imidazole-4-carboxamide] |  |  | 177 to 179 °C | 100 | 398 |  |
| COc1ccc(-n2cc(C(=O)NC3CCCCC3)nc2-c2ccc(Cl)cc2Cl)cc1 [Example 36, N-Cyclohexyl-2-(2,4-dichlorophenyl)-1-(4-methoxyphenyl)-1H-imidazole-4-carboxamide] | 6.31 | 6.80 | 175 to 176 °C |  |  |  |
| O=C(NC1CCCCC1)c1cn(-c2ccc(Cl)cc2)c(-c2ccc(Cl)cc2C(F)(F)F)n1 [Example 38, 1-(4-Chlorophenyl)-N-cyclohexyl-2-(2-trifluoromethyl-4-chlorophenyl)-1H-imidazole-4-carboxamide] |  |  | 172 °C | 20 | 200 |  |
| O=C(NN1CCCCC1)c1cn(-c2ccc(Cl)cc2)c(-c2ccc(Cl)cc2C(F)(F)F)n1 [Example 39, 1-(4-Chlorophenyl)-N-(piperidin-1-yl)-2-(2-trifluoromethyl-4-chlorophenyl)-1H-imidazole-4-carboxamide] |  |  | 219 °C | 50.1 | 316 |  |
| Cc1c(C(=O)NN2CCCCC2)nc(-c2ccc(Cl)cc2Cl)n1-c1ccc(C(F)(F)F)cc1 [Example 45, 2-(2,4-dichlorophenyl)-5-methyl-N-(piperidin-1-yl)-1-(4-(trifluoromethyl)phenyl)-1H-imidazole-4-carboxamide] | 1.58 | 7.80 |  |  |  |  |
| O=C(NN1CCCCC1)c1cn(-c2ccc(C(F)(F)F)cc2)c(-c2ccc(Cl)cc2Cl)n1 [Example 46, 2-(2,4-dichlorophenyl)-N-(piperidin-1-yl)-1-(4-(trifluoromethyl)phenyl)-1H-imidazole-4-carboxamide] | 6.31 | 7.30 | > 200 °C (dec.) |  |  |  |
| O=C(NC1CCCCC1)c1cn(-c2ccc(C(F)(F)F)cc2)c(-c2ccc(Cl)cc2Cl)n1 [Example 48, N-Cyclohexyl-2-(2,4-dichlorophenyl)-1-(4-(trifluoromethyl)phenyl)-1H-imidazole-4-carboxamide] |  |  | 199 to 200 °C | 0.251 | 316 |  |
| Cc1c(C(=O)NN2CCOCC2)nc(-c2ccc(Cl)cc2Cl)n1-c1ccc(Cl)cn1 [Example 52, 1-(5-Chloropyridin-2-yl)-2-(2,4-dichlorophenyl)-5-methyl-N-(4-morpholinyl)-1H-imidazole-4-carboxamide] |  |  |  | 2.51 | 501 |  |
| Cc1c(C(=O)NN2CCCCC2)nc(-c2ccc(Cl)cc2Cl)n1-c1ccc(F)cc1 [Example 62, 2-(2,4-Dichlorophenyl)-1-(4-fluorophenyl)-5-methyl-N-(piperidin-1-yl)-1H-imidazole-4-carboxamide] |  | 7.50 | 223 to 224 °C |  |  | 7.7 |
| COc1ccc(-n2c(-c3ccc(Cl)cc3Cl)nc(C(=O)NN3CCCCC3)c2C)cc1 [Example 63, 2-(2,4-Dichlorophenyl)-5-methyl-1-(4-methoxyphenyl)-N-(piperidin-1-yl)-1H-imidazole-4-carboxamide] | 1 | 7.10 | > 90 °C (dec.) |  |  |  |
| Cc1c(C(=O)NN2CC3CCCC3C2)nc(-c2ccc(Cl)cc2Cl)n1-c1ccc(Cl)cc1 (stereo not drawn) [Example 81, 1-(4-Chlorophenyl)-2-(2,4-dichlorophenyl)-N-(hexahydrocyclopenta-[c]pyrrol-2(1H)-yl)-5-methyl-1H-imidazole-4-carboxamide] |  | 7.50 | 143 to 146 °C |  |  | 9.8 |
| O=C(NN1CCCCC1)c1nc(-c2ccc(Cl)cc2Cl)n(-c2ccc(Br)cc2)c1Cl [Example 109, 1-(4-bromophenyl)-5-chloro-2-(2,4-dichloro-phenyl)-N-(piperidin-1-yl)-1H-imidazole-4-carboxamide] | 1.58 | 6.60 |  |  |  |  |
| N#Cc1c(C(=O)NN2CCCCC2)nc(-c2ccc(Cl)cc2Cl)n1-c1ccc(Cl)cc1 [Example 110, 1-(4-chlorophenyl)-5-cyano-2-(2,4-dichlorophenyl)-N-(piperidin-1-yl)-1H-imidazole-4-carboxamide] |  | 7.50 |  |  |  | 8.6 |
